Test results from US20100062992A1 (SuperGen, Inc., priority 2004, published 2010).
Where a name gives a salt, the structure may show the parent alone.

Legend:
[1] = 0.05 M phosphate buffer, pH 7.0 and 2.5
[2] = Hygroscopicity, % weight gain in 1 week at 56% and 98% relative humidity; format: physicochemical; details: one week at 56% / 98% RH

rate of dissolution compared with free base (in words) (1.0 mg in water): less than the free azacitidine base
Dissolution In water (1.0 mg/mL) (time to dissolve, with Sonication): 1 min
hygroscopicity compared with free base (in words) [2]: more hydroscopic than free azacitidine
SMILES: Nc1ncn([C@@H]2O[C@H](CO)C(O)C2O)c(=O)n1 (stereo partly shown) [Compound 19, azacitidine mesylate]
solution stability compared with free base (in words) [1]: slightly less than the free azacitidine base
